Activity calls are given as the source filed them. The rule behind the calls is not given here.
Legend:
[1] = molecular target: Actin, cytoplasmic 1 (Homo sapiens) (UniProt P60709); experiment: Inhibition of actin organization in human MCF7 cells transfected with GFP-tagged human beta-actin assessed as reduction of g-actin monomers at 100 nM after 30 mins by FRAP method; format: cell-based
[2] = molecular target: Actin, cytoplasmic 1 (Homo sapiens) (UniProt P60709); experiment: Inhibition of actin organization in human MCF7 cells transfected with GFP-tagged human beta-actin assessed as formation of actin aggregates at 300 nM after 30 mins by FRAP method; format: cell-based
[3] = molecular target: Actin, cytoplasmic 1 (Homo sapiens) (UniProt P60709); experiment: Inhibition of actin organization in human MCF7 cells transfected with GFP-tagged human beta-actin assessed as reduction of actin stress fibers at 100 nM after 24 hrs by FRAP method; format: cell-based
[4] = molecular target: Actin, cytoplasmic 1 (Homo sapiens) (UniProt P60709); experiment: Inhibition of actin organization in human MDA-MB-231 cells transfected with GFP-tagged human beta-actin assessed as reduction of actin stress fibers at 100 nM after 24 hrs by FRAP method; format: cell-based
[5] = molecular target: Actin, cytoplasmic 1 (Homo sapiens) (UniProt P60709); experiment: Inhibition of actin organization in human MCF7 cells transfected with GFP-tagged human beta-actin assessed as formation of actin aggregates at 300 to 500 nM after 24 hrs by FRAP method; format: cell-based
[6] = molecular target: Actin, cytoplasmic 1 (Homo sapiens) (UniProt P60709); experiment: Inhibition of actin organization in human MDA-MB-231 cells transfected with GFP-tagged human beta-actin assessed as formation of actin aggregates at 300 to 500 nM after 24 hrs by FRAP method; format: cell-based
[7] = tested on: MCF7; experiment: Antiproliferative activity against human MCF7 cells after 72 hrs by CellTiter-Blue assay; format: functional, cell-based
[8] = tested on: MDA-MB-231; experiment: Antiproliferative activity against human MDA-MB-231 cells after 72 hrs by CellTiter-Blue assay; format: functional, cell-based
[9] = tested on: MDA-MB-231; experiment: Antimigratory activity against human MDA-MB-231 cells up to 10 hrs; format: functional, cell-based
[10] = tested on: MCF7; experiment: Induction of apoptosis in human MCF7 cells after 24 hrs using propidium iodide by flow cytometry; format: functional, cell-based
[11] = tested on: MDA-MB-231; experiment: Induction of apoptosis in human MDA-MB-231 cells after 24 hrs using propidium iodide by flow cytometry; format: functional, cell-based
[12] = tested on: MCF7; experiment: Induction of apoptosis in human MCF7 cells assessed as reduction of pro-caspase9 level after 48 hrs by Western blot analysis; format: functional, cell-based
[13] = tested on: MDA-MB-231; experiment: Induction of apoptosis in human MDA-MB-231 cells assessed as reduction of pro-caspase9 level after 48 hrs by Western blot analysis; format: functional, cell-based
[14] = tested on: MCF7; experiment: Induction of apoptosis in human MCF7 cells assessed as PARP cleavage after 48 hrs by Western blot analysis; format: functional, cell-based
[15] = tested on: MDA-MB-231; experiment: Induction of apoptosis in human MDA-MB-231 cells assessed as PARP cleavage after 48 hrs by Western blot analysis; format: functional, cell-based

CC(C)[C@@H]1C[C@H](O)[C@H](C)C[C@H](C)C[C@H](C)C(=O)NCC(=O)N(C)[C@H](Cc2ccc(O)c(I)c2)C(=O)O1
inhibition [1]: Active | inhibition [2]: Active | inhibition [3]: Active | inhibition [4]: Active | inhibition [5]: Active | inhibition [6]: Active | inhibition [7]: Dose-dependent effect | IC50 ([7]; MCF7, 72 h): 0.093 µM | inhibition [8]: Dose-dependent effect | IC50 ([8]; MDA-MB-231, 72 h): 0.077 µM | inhibition [9]: Dose-dependent effect | Activity [10]: Dose-dependent effect | Activity [11]: Dose-dependent effect | Activity [12]: Dose-dependent effect | Activity [13]: Dose-dependent effect | Activity [14]: Active | Activity [15]: Active
